These results are taken from patent US10688063B2, “Treating and/or preventing insulin-resistance related weight gain” (University of South Florida, priority 2013, dated 2020).

One assay addresses T1, Akt2 (Mus musculus, UniProt Q60823).
T1 construct: from tissue; host or cells: mouse liver and muscle
Briefly: Akt2 activity in liver and muscle of HFF mice, 10 weeks treatment. It is filed as in vivo. Particulars: daily s.c. 10 weeks.

For the next assay, the system named is FoxO1, WD40/ProF. Nature of the assay: Hepatic Ser256-FoxO1 phosphorylation and aPKC/Akt in WD40/ProF immunoprecipitates in HFF mice. It is filed as in vivo, mouse. To be noted: 10 weeks. As for the experimental part: (§1) Post mortem, liver tissue was removed and examined for immunoreactivity of the indicated signaling factors.
For the results shown in FIG. 10A, liver cell lysates were prepared as previously described. Phosphorylated FoxO1 and un-phosphorylated FoxO1 were analyzed using western blotting as previously described except rabbit anti-phospho-Ser^256-FoxO1 antisera and anti-FoxO1 antiserum was used.
For the results in FIG. 10B, the indicated immunoreactive proteins were analyzed in the immunopercipitates via western blot as previously described except that rabbit anti-aPKC-λ/ι, FoxO1, or WD40/ProF antisera were used.

The subject of assay [1] is Ser473-Akt, Ser9-GSK3β, Thr555/560-PKC-λ/ζ, Thr2448-mTOR. Briefly: Hepatic phosphorylation of Ser473-Akt, Ser9-GSK3β, Thr555/560-PKC-λ/ζ, Thr2448-mTOR in HFF mice (Western). It is filed as in vivo, mouse. To be noted: 10 weeks. The method, then:
as §1
Tissue Preparation: To prepare cell lysates, liver and muscle tissue samples were homogenized in ice-cold buffer containing 0.25 mol/l sucrose, 20 mmol/l Tris/HCl (pH, 7.5), 2 mmol/l EGTA, 2 mmol/l EDTA, 1 mmol/l phenlysulfonlyfluoride (PMSF), 20 μg/ml leupeptin, 10 μg/ml aprotinin, 2 mmol/l Na4P2O7, 2 mmol/l Na3VO4, 2 mmol/l NaF, and 1 μmol/l microcystin, and then supplemented with 1% TritonX-100, 0.6% Nonidet and 150 mmol/l NaCl, and cleared by low-speed centrifugation.
Western Analysis: Western analysis for the indicated signaling factors and GAPDH (endogenous control) were conducted as described in Sajan and Farese. 2012 Diabetologia. 55:1446-1457, Standaert et al. 2004. J. Biol. Chem. 279:24929-24934, Sajan et al. 2012. Metabolism. 61:459-469, Sajan et al. 2009. Diabetologia. 52:1197-1207, Sajan et al. 2009. J. Lipid Res. 50:1133-1145, and Sajan et al. 2013. Diabetologia. 56:2507-2516 using […] anti-phospho-Ser^473-Akt antiserum, rabbit anti-glyceraldehyde-phosphate dehydrogenase (GAPDH) antiserum, rabbit anti-WD40-ProF antiserum, and rabbit anti-aPKC antiserum (Santa Cruz Biotechnologies, Santa Cruz, Calif.); rabbit anti-phospho-Thr560/555 PKC-ζ/λ/ι antiserum (Invitrogen, Carlsbad, Calif.); rabbit anti-p-Ser^256-FoxO1 and anit-FoxO1 antiserum (Abnova, Walnut, Calif.); mouse monoclonal anti-PKC-λ/ι antibodies (Transduction Antibodies, Bedford, Mass.); and rabbit anti-phospho-Ser^9-GSK3β antiserum, rabbit anti-phosphoSer^[…]-mTOR antiserum, and mouse anti-Akt antibodies (Cell Signaling Technologies, Danvers, Mass.). Samples from experimental groups were compared on the same blots and corrected for recovery as needed by measurement of GAPDH immunoreactivity.

In assay [2] the test system is SREBP-1c, FAS, PEPCK, G6Pase. Briefly: Hepatic mRNA and protein levels of lipogenic and gluconeogenic enzymes in HFF mice. The format is in vivo, mouse. Particulars: 10 weeks, ad libitum-fed. The method, then: as §1
Nuclear preparations were also prepared as described in Sajan et al. 2009. Diabetologia. 52:1197-1207. Western analysis was conducted to evaluate the indicated immunoreactive proteins as in Example 7, except in this Example, rabbit polyclonal anti-GAPDH antiserum, rabbit polyclonal anti-FAS antiserum, rabbit polyclonal anti-PEPCK antiserum, rabbit polyclonal anti-G6Pase antiserum (Santa Cruz Biotechnologies, Santa Cruz, Calif.), and mouse monoclonal anti-SREBP-1 antibodies (Lab Vision Corp., Freemont, Calif.) were used to detect the indicated proteins.

Assay [3] deals with aPKC. Briefly: aPKC activity in liver and muscle of high fat fed (HFF) mice, 10 weeks treatment. The format is in vivo, mouse. Particulars: daily s.c. 10 weeks.
The nature of assay [4]: Glucose tolerance, serum parameters, body weight, food intake, liver and abdominal fat in HFF mice. The format is in vivo, mouse. The method, then:
Briefly, […] body weight was injected intraperitoneally. After the glucose injection, blood glucose levels were measured at 0, 30, 60, 90 and 120 minutes post-injection. 15 minutes prior to killing, mice were injected with or without insulin (1 U/kg body weight). Serum glucose, triglycerides, and serum cholesterol were measured using methods generally known in the art. Liver triglycerides were also measured using methods generally known in the art. Over the 10 weeks, body weight and food intake were measured weekly. Overall change in bodyweight was also evaluated. Additionally, epididymal plus retroperitoneal fat (also abbreviated PG/PN fat) was measured and evaluated as g/100 g of body weight. After killing, liver tissue samples were sectioned and prepared for Oil red O staining by methods generally known in the art. Samples were Oil Red O stained to observe hepatic fat contents.

Assay [5] has as its system aPKC. Nature of the assay: Effect of ceramide on aPKC immunoprecipitated from liver lysates of LF and HF fed mice. It is filed as biochemical, mouse. As for the experimental part: Standard (C57BI/6/SV129) mice consumed a standard low-fat or high-fat diet for 10 weeks. At 10 weeks mice were treated with or without insulin for 15 min prior to killing. Liver cell lysates were prepared as in Example 5 and aPKC activity assay was performed on the aPKC immunoprecipitate as in Example 5, except here the activity assays were carried out in the presence of the indicated concentrations of ceramide. Additionally, the levels of ceramide and sphingomyelin species in lipid extracts prepared from the liver cell lysates. Ceramide and sphingomyelin species were measured by liquid chromatography tandem mass spectrometry analysis of the lipid extracts of the liver lysates.

For assay [6], the system named is aPKC. Nature of the assay: aPKC activity in brains of heterozygous muscle-specific PKC-λ knockout mice (Western). It is filed as in vivo, mouse. To be noted: treated for 8 days. As for the experimental part: Standard lab mice (“control” or “con” mice) and heterozygous muscle-specific PKC-λ knockout mice were fed standard chow containing 10% fat. Some mice were treated for 8 days with ICAPP. Some mice were acutely treated with insulin (1 U/kg body weight administered intraperitoneally) 15 minutes prior to killing. Brain tissues were collected and prepared for phospho-protein analysis. Activity/activation of aPKC was assessed by Western blot analyses of phospho-protein immunoreactivity followed by quantitative scanning of the blots.

Setting [7] is: toward, not fully to, normal levels.

T1 sequence (Q60823 whole entry): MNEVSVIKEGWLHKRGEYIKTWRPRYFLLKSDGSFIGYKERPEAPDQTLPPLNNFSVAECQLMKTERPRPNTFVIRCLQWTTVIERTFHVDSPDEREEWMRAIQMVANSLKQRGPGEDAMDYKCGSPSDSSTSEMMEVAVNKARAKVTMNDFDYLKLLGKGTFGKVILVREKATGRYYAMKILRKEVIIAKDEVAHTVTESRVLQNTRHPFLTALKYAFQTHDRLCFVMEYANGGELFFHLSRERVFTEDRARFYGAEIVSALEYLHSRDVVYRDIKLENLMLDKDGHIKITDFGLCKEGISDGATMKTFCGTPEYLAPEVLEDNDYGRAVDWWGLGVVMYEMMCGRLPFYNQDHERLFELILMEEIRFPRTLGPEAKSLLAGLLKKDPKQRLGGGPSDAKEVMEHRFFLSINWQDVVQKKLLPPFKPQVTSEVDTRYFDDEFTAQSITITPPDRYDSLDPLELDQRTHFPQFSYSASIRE

In the case of `NC(=O)c1ncn(C2CC(COP(=O)(O)O)C(O)C2O)c1N` (stereo not drawn) [ICAP], the “hepatic Akt2 activity” value at Akt2 (ICAP 1 mg/kg, ACPD 10 mg/kg) is on record as “increased further”. Moreover, the “muscle Akt2 activity” value at Akt2 (setting [7]) is recorded as “increased”. For the same molecule, in the assay with FoxO1, WD40/ProF (HFF mice liver), the “WD40/ProF-associated Akt activity” value is listed as “increased” and the “aPKC binding to WD40/ProF” value is reported as “diminished”. In addition, the “basal/resting and insulin-stimulated hepatic FoxO1 phosphorylation” value in the assay with FoxO1, WD40/ProF (HFF mice) was “fully or partially restored”. In assay [1], the “hepatic phosphorylation of Ser9-GSK3β and Ser2448-mTOR” value was “not altered”; the “insulin-stimulated Akt2 activity in liver (Ser473-Akt phosphorylation)” value is on record as “increased”; the “resting Akt2 activity in liver (Ser473-Akt phosphorylation)” value is “did not alter”. The “basal/resting and exogenous insulin-stimulated hepatic aPKC activities (Thr555/560 phosphorylation)” value in assay [1] (to levels of control low fat fed mice) was “reduced”. In assay [2], the “hepatic mRNA levels of SREBP-1c, FAS, PEPCK, G6Pase versus control/low-fat fed mice” value is “not significantly different” and the “hepatic protein levels of SREBP-1c, FAS, PEPCK, G6Pase versus control/low-fat fed mice” value is given as “not significantly different”. Besides, the “resting and insulin-stimulated hepatic aPKC activity” value in the assay on aPKC [3] (ICAP 1 mg/kg, ACPD 10 mg/kg, to control levels) is given as “diminished”. Besides, the “muscle aPKC activity” value in the assay on aPKC [3] (setting [7]) is on record as “increased”. In assay [4] (10 weeks), the “HFF-induced increases in abdominal fat depots” value was “improved”; the food intake result is reported as “without altering”; the “increases in liver triglycerides and fat content” value was “largely prevented”; the “increases in serum triglycerides and cholesterol levels” value was “largely prevented”. For the same molecule, the weight gain result in assay [4] (10 weeks) was “largely prevented”. Besides, in assay [4] (still modestly elevated), the fasting insulin levels entry is listed as “improved”. Further, in assay [4] (to levels indistinguishable from control chow-fed mice), the “glucose tolerance, basal glucose levels (fasting and fed), acute effects of insulin on serum glucose” value is “improved”.
Turning to ceramide, the “activity of aPKC immunoprecipitated from liver lysates” value is recorded as “only a weak effect” in the assay on aPKC [5] (HFF mice), “diminished activity” in the assay with aPKC [5] (HFF mice treated acutely with insulin) and “strongly activated” in the assay on aPKC [5] (LFF/control mice).
As to `NC(=O)c1ncn([C@@H]2C[C@H](COP(=O)(O)O)[C@@H](O)[C@H]2O)c1N` [ICAPP], the “aPKC activity in the brain” value in the assay on aPKC [6] is “decreased”.
